The text below walks through data of patent US7465718B2, “Ansamycins having improved pharmacological and biological properties” (Conforma Therapeutics Corporation, priority 2002, dated 2008).

The test system of one data set is HIV-1ROJO. The data set is described as follows: Anti-HIV PBMC assay (reverse transcriptase activity in supernatant). The settings on record: for TI (therapeutic index, TC50/IC50): HIV-1ROJO in PBMCs; for IC50: read-out: IC50 (μM) (50% inhibition of virus replication), HIV-1ROJO in fresh human PBMCs, 7 days.
A further data set has as its system PBMC. Kind of data set: MTS assay to measure cytotoxicity of PBMC. It is filed as cell-based, human. The settings on record: PBMCs without virus, read-out: TC50 (μM) (50% cytotoxicity). The procedure: (§1) PBMC's in 96 well plates that were treated with compounds (without virus) were assayed for cell viability and compound toxicity using an MTS assay (CellTiter 96 Aqueous Non-Radioactivity Cell Proliferation Assay, Promega, Madison; Wis.).

A short description of data set [1]: MTS assay to measure cytotoxicity of PBMC. Type of data set: cell-based, human. To be noted: human, PBMC, PBMCs without virus, read-out: TC50 (μM) (50% cytotoxicity). The procedure:
as §1
Background: Formazan colour is commonly taken as a measure of viable cells.

A further data set deals with Her-2. Kind of data set: HER2 inhibition assay (Her-2 degradation in MCF7 cells, flow cytometry). It is filed as cell-based. The settings on record: read-out: HER-2 degradation (IC50 nM). The procedure: MCF7 cells are seeded in 24 well plates at a density of approximately 30,000 cells/well and allowed to grow for 16 hours in DMEM supplemented with 10% FBS. Drug is then added at a concentration range of 100 uM to 0.01 uM. Cells are incubated for an additional 24. […] 10,000 events were collected per sample. A fluorescence histogram was generated and the mean fluorescence intensity (mfi) of each sample was determined using Cellquest software. The background was defined as the mfi generated from cells incubated with control IgG, and was subtracted from each sample stained with the HER-2/neu Ab. Percent degradation of Her-2 was calculated as follows: % Her-2 degradation=(mfi HER-2 sample)/(mfi HER-2 untreated cells)×100 Water Solubility Studies
(In flow cytometry, cells or beads pass a laser one at a time.)

A short description of data set [2]: Water solubility studies (salts dissolved in water at room temperature). Type of data set: physicochemical. To be noted: thermodynamic from solid, HCl salt, read-out: Solubility of the HCl salt in H2O. The protocol:
Various salts were prepared as described in the example section and dissolved in water at room temperature.

In data set [3] the test system is HSP90 (cell lysate, high affinity). Kind of data set: Biotin-geldanamycin competition binding, HSP90 in cell lysate (high affinity). To be noted: for ratio: rHsp90 (low affinity) IC50 over lysate (high affinity) IC50; for IC50: read-out: Lysate (high affinity) IC50 nM, inhibition of biotin-GM binding to HSP90 in cell lysate, 4° C.
The target of another data set is rHsp90 (low affinity). Kind of data set: Biotin-geldanamycin competition binding, purified native HSP90 protein (rHsp90, low affinity). The settings on record: read-out: rHsp90 (low affinity) IC50 nM; inhibition of biotin-GM binding to purified HSP90, 4° C.
The next data set deals with A549 xenografts. Kind of data set: A549 xenograft growth in vivo. To be noted: IP injections, three consecutive days each week for four weeks. The text has this: Similar efficacy has been seen with five second-generation ansamycins, some of which are being developed as back-ups to Compound#237.
The subject of data set [4] is primary human breast tumor xenograft. Kind of data set: Transplantable primary human breast tumor xenograft model. The settings on record: 30 mg/kg intraperitoneally. Type of data set: in vivo.
A further data set has as its system MDA435 breast tumor. The data set is described as follows: MDA435 breast tumor model. Type of data set: in vivo, nude mice. The settings on record: four courses of therapy; 25 or 30 mg/kg, 40 or 50 mg/kg. The protocol:
When the tumors were ˜50 mm3 in size, the animals were randomized into groups of five (10 tumors/group). Therapy commenced under the schedule described for the A549 model. Animals were treated with vehicle (triangles) or one of two doses (25 or 30 mg/kg, squares; 40 or 50 mg/kg, circles) of drugs.

A further data set concerns SKOV-3 ovarian xenograft. Kind of data set: SKOV-3 ovarian xenograft model. It is filed as in vivo. The settings on record: tumors 200 mm3 before commencement of treatment. The text has this: Compounds have also been tested in HER-2 over-expressing tumor models such as BT474 breast and SKOV-3 ovarian carcinoma A therapy experiment with SKOV-3 is shown in FIG. 6. The treatment, doses, and schedule were the same as used in the A549 and MDA435 experiments. In this case, the tumors were allowed to become established and grow to a relatively large size (200 mm3) before commencement of treatment.

As usually defined, the IC50 is the concentration needed to halve the response being measured. Regarding `Cc1cn([C@H]2C[C@H](N=[N+]=[N-])[C@@H](CO)O2)c(=O)[nH]c1=O` [AZT Control, reference compound], in the data set on HIV-1ROJO, the “TI (therapeutic index, TC50/IC50)” value is more than 197.6 and the IC50 is 0.0051 µM. Besides, in the data set with PBMC, the CC50 was more than 1 µM.

A word on the solubility: it is the concentration that dissolves in the medium under given conditions. Broadly, the melting point is the temperature, or range, at which the solid turns liquid. In the case of `COC1C=CC=C(C)C(=O)NC2=CC(=O)C(NCCCN(C)CCCNC3=C4CC(C)CC(OC)C(O)C(C)C=C(C)C(OC(N)=O)C(OC)C=CC=C(C)C(=O)NC(=CC3=O)C4=O)=C(CC(C)CC(OC)C(O)C(C)C=C(C)C1OC(N)=O)C2=O` (stereo not drawn) [Compound #208], the melting point was 153 °C (dec.). Also, in the data set with HIV-1ROJO, the “TI (therapeutic index, TC50/IC50)” value is 38.6 and the IC50 amounted to 0.007 µM. Also, the CC50 in [1] was 0.27 µM. Further, the IC50 in the data set with Her-2 is 11 nM. In addition, the solubility in data set [2] is not below 20 mg/mL.

For `COC1C=CC=C(C)C(=O)NC2=CC(=O)C(NCCCNCCCNC3=C4CC(C)CC(OC)C(O)C(C)C=C(C)C(OC(N)=O)C(OC)C=CC=C(C)C(=O)NC(=CC3=O)C4=O)=C(CC(C)CC(OC)C(O)C(C)C=C(C)C1OC(N)=O)C2=O` (stereo not drawn) [Compound #237], the melting point was 165 °C. For the same compound, in data set [3], the ratio came to 67 and the IC50 is 30 nM. Besides, the IC50 on rHsp90 (low affinity) turned out to be 2000 nM. Further, the “growth of A549 xenografts” value in the data set with A549 xenografts was “blocks the growth”. Further, the “tumor growth inhibition in primary human breast tumor xenograft” value in [4] was 86%. Moreover, the IC50 in the data set on Her-2 was found to be 20 nM. The solubility in [2] is not below 13 mg/mL. Also, the “inhibition of tumor growth in MDA435” value in the data set with MDA435 breast tumor is listed as 70 to 100%. Also, in the data set on SKOV-3 ovarian xenograft, the “tumor growth in SKOV-3 xenograft” value is listed as “suppressed tumor growth almost completely”.

Take `COC1/C=C\C=C(/C)C(=O)NC2=CC(=O)C(NC(=O)c3ccccc3)=C(CC(C)CC(OC)C(O)C(C)/C=C(\C)C1OC(N)=O)C2=O` (stereo not drawn) [Compound #563, 17-(benzoyl)-aminogeldanamycin]: the melting point was 218 to 220 °C. Moreover, in [3], the ratio stood at 90 and the IC50 was 50 nM. Also, the IC50 on rHsp90 (low affinity) is 4500 nM. The “tumor growth in SKOV-3 xenograft” value in the data set on SKOV-3 ovarian xenograft is “suppressed tumor growth almost completely”.
